Columns and labels:
[1] = test system: HORVS Montoya; assay: Safener seed treatment, pre-emergence herbicide, crop damage; format: in vivo, spring barley; parameters: key to Reduction [Difference]: % crop damage without safener minus % damage with safener; details: HER 15 g a.i./ha pre-emergence; for Reduction [%] / Reduction [Difference]: isoxadifen-ethyl 0.25 g a.i./kg seed; for HER effect + SAF: isoxadifen-ethyl seed treatment 0.25 g a.i./kg seed; for HER effect: no safener
Protocol: (§1) For the safener seed treatment, sufficient seeds of the respective crops (spring wheat, TRZAS; spring barley, HORVS; maize, ZEAMA) were weighed into screw top glass bottles approximately twice the volume of the seeds.
(§2) The specified safeners, formulated as wettable powder (WP) were weighed out so that the specified rates (g a.i./kg seed) would be obtained, dissolved in water (1 ml water per 10 g of seeds), and added to the seeds to produce a slurry.
(§3) The bottles were capped and then placed in an overhead shaker (set at medium speed for ca. 60 minutes) so that the seeds were evenly coated with the slurry. The bottles were uncapped and the seeds were either placed on paper and dried for an interval of 3-4 hours prior to sowing, or directly sown. Seeds were placed in sandy loam soil in pots of a diameter of 7-8 cm, and covered with soil.
(§4) Pre-emergence application of the specified herbicides was done subsequently, on two sets of plants: a) seed treatment with safener, as described above
(§5) The herbicides were formulated as WP and was sprayed onto the soil surface as an aqueous suspension at an equivalent water application rate of 300 l/ha.
(§6) After application, the test plants were kept in the greenhouse under good growth conditions. At intervals up to 4 weeks after application (=28 days after treatment; DAT), % crop damage observed on the treated plants was scored visually in comparison to control plants that had not received any safener or herbicide treatment.
(§7) Values in the table below are mean values of at least 2 replicates.
Reduction[Difference]=herbicide damage without safener−herbicide damage with safener Reduction[%]=(Reduction[Difference]*100)/herbicide damage without safener b) Plant Species, Variety: HORVS Montoya, Safener (SAF): Isoxadifen-Ethyl

[2] = test system: ZEAMA Sileno; assay: Tank-mix post-emergence crop damage, greenhouse, visual assessment; format: in vivo, maize; parameters: key to Reduction [Difference]: % points: herbicide damage without safener − damage with safener; details: for HER effect + SAF / Reduction [%] / Reduction [Difference]: Final; for HER effect: no safener, Final assessment
Protocol: (§8) Seeds of crops (spring wheat, TRZAS; spring barley, HORVS; maize, ZEAMA) were placed in sandy loam soil in peat pots, covered with soil and cultivated in a greenhouse under good growth conditions. Two to three weeks after sowing, the test plants were treated at the 1 to 3-leaf stage. The herbicide/safener active compound combinations according to the invention, formulated as wettable powders or emulsion concentrates, and, in parallel tests, the correspondingly formulated individual active compounds were sprayed onto the green parts of the plants in various dosages using an amount of water of 300 l/ha (converted).
(§9) The pots were returned under good growing conditions in a glasshouse and a visual assessment of herbicidal effects was made at intervals from 1 to 3 weeks after herbicide application (DAT=days after treatment). Assessment was on a percentage basis in comparison with untreated control plants (0%=no injury, 100%=complete kill).
(§10) Reduction[Difference]=herbicide damage without safener−herbicide damage with safener Reduction[%]=(Reduction[Difference]*100)/herbicide damage without safener
a) Plant Species, Variety: ZEAMA Sileno, Safener (SAF): Isoxadifen-Ethyl

[3] = test system: TRZAS Triso; assay: as above; format: in vivo, spring wheat; details: 21 DAT; for Reduction [%] / Reduction [Difference]: isoxadifen-ethyl 50 g a.i./ha; for HER effect: no safener
Protocol: as §8, §9, §10
5d) Plant Species, Variety: TRZAS Triso, Safener (SAF): Isoxadifen-Ethyl

[4] = test system: HORVS Montoya; assay: as above; format: in vivo, spring barley; details: 10 DAT; for Reduction [%] / Reduction [Difference]: isoxadifen-ethyl 50 g a.i./ha; for HER effect: no safener
Protocol: as §8, §9, §10
c) Plant Species, Variety: HORVS Montoya, Safener (SAF): Isoxadifen-Ethyl

[5] = test system: ZEAMA Sileno; assay: Safener seed treatment, pre-emergence herbicide, crop damage; format: in vivo, maize; parameters: key to Reduction [Difference]: % crop damage without safener minus % damage with safener; details: for Reduction [%] / Reduction [Difference]: isoxadifen-ethyl 0.25 g a.i./kg seed; for HER effect + SAF: isoxadifen-ethyl seed treatment 0.25 g a.i./kg seed; for HER effect: no safener
Protocol: as §1, §2, §3, §4, §5, §6, §7
Reduction[Difference]=herbicide damage without safener−herbicide damage with safener Reduction[%]=(Reduction[Difference]*100)/herbicide damage without safener […]
c) Plant Species, Variety: ZEAMA Sileno, Safener (SAF): Isoxadifen-Ethyl

[6] = test system: TRZAS Triso; assay: as above; format: in vivo, spring wheat; parameters: key to Reduction [Difference]: % crop damage without safener minus % damage with safener; details: for Reduction [%] / Reduction [Difference]: isoxadifen-ethyl 0.25 g a.i./kg seed; for HER effect + SAF: isoxadifen-ethyl seed treatment 0.25 g a.i./kg seed; for HER effect: no safener
Protocol: as §1, §2, §3, §4, §5, §6, §7
Reduction[Difference]=herbicide damage without safener−herbicide damage with safener Reduction[%]=(Reduction[Difference]*100)/herbicide damage without safener a) Plant Species, Variety: TRZAS Triso, Safener (SAF): Isoxadifen-Ethyl

[7] = HER 2 g a.i./ha + isoxadifen-ethyl 50 g a.i./ha
[8] = HER 2 g a.i./ha, isoxadifen-ethyl 50 g a.i./ha
[9] = HER 0.25 g a.i./ha + isoxadifen-ethyl 50 g a.i./ha
[10] = HER 40 g a.i./ha pre-emergence, 14 DAT
[11] = HER 5 g a.i./ha pre-emergence, 11 DAT (Interim)
[12] = HER 5 g a.i./ha pre-emergence, 21 DAT (Final)
[13] = HER 8 g a.i./ha, isoxadifen-ethyl 50 g a.i./ha
[14] = HER 32 g a.i./ha, isoxadifen-ethyl 100 g a.i./ha
[15] = HER 15 g a.i./ha pre-emergence, 11 DAT (Interim)
[16] = HER 0.5 g a.i./ha + isoxadifen-ethyl 50 g a.i./ha
[17] = HER 40 g a.i./ha pre-emergence, 26 DAT
[18] = HER 80 g a.i./ha pre-emergence, 14 DAT
[19] = HER 80 g a.i./ha pre-emergence, 26 DAT
[20] = HER 15 g a.i./ha pre-emergence, 21 DAT (Final)

With `C=CC1(C(=O)NC2COC(C(=O)OC)C2)CC(c2cc(F)cc(F)c2)=NO1` (mixture of isomers) [Example 1.68] the “Reduction [%]” value ([1]; 11 DAT (Interim)) was 31%, the “Reduction [Difference]” value ([1]; 11 DAT (Interim)) was 20 and the “HER effect + SAF” value ([1]; 11 DAT (Interim)) was 45%. For the same compound, the HER effect ([1]; 11 DAT (Interim)) was 65%, the “HER effect + SAF” value [2, 7] was 25% and the “Reduction [%]” value [2, 8] was 58%. The “Reduction [Difference]” value [2, 8] was 35, the HER effect ([2]; HER 2 g a.i./ha, 0%=no injury, 100%=complete kill) was 60% and the “HER effect + SAF” value [3, 9] was 20%. The “Reduction [%]” value ([3]; HER 0.25 g a.i./ha) was 50%, the “Reduction [Difference]” value ([3]; HER 0.25 g a.i./ha) was 20 and the HER effect ([3]; HER 0.25 g a.i./ha) was 40%. The “HER effect + SAF” value ([3]; HER 1 g a.i./ha + isoxadifen-ethyl 50 g a.i./ha) was 70%, the “Reduction [%]” value ([3]; HER 1 g a.i./ha) was 25% and the “Reduction [Difference]” value ([3]; HER 1 g a.i./ha) was 23. For the same compound, the HER effect ([3]; HER 1 g a.i./ha) was 93%, the “HER effect + SAF” value [4, 9] was 0% and the “Reduction [%]” value ([4]; HER 0.25 g a.i./ha) was 100%. The “Reduction [Difference]” value ([4]; HER 0.25 g a.i./ha) was 20, the HER effect ([4]; HER 0.25 g a.i./ha) was 20% and the “Reduction [%]” value [5, 10] was 25%. For the same compound, the “Reduction [Difference]” value [5, 10] was 23, the “HER effect + SAF” value [5, 10] was 70% and the HER effect [5, 10] was 93%. The “Reduction [%]” value [6, 11] was 44%, the “Reduction [Difference]” value [6, 11] was 20 and the “Reduction [%]” value [6, 12] was 56%. For the same compound, the “Reduction [Difference]” value [6, 12] was 25, the “HER effect + SAF” value [6, 11] was 25% and the “HER effect + SAF” value [6, 12] was 20%. For the same compound, the HER effect [6, 11] was 45% and the HER effect [6, 12] was 45%.

In the case of `COC(=O)C1C=CC(NC(=O)C2(C(F)(F)F)CC(c3cccc(F)c3)=NO2)C1` (centres unmarked) [Example 1.18], the “Reduction [%]” value ([1]; 11 DAT (Interim)) is reported as 50%, the “Reduction [Difference]” value ([1]; 11 DAT (Interim)) is reported as 20 and the “Reduction [%]” value ([1]; 21 DAT (Final)) is reported as 88%. The “Reduction [Difference]” value ([1]; 21 DAT (Final)) was 35, the “HER effect + SAF” value ([1]; 11 DAT (Interim)) was 20% and the “HER effect + SAF” value ([1]; 21 DAT (Final)) was 5%. The HER effect ([1]; 11 DAT (Interim)) was 40%, the HER effect ([1]; 21 DAT (Final)) was 40% and the “HER effect + SAF” value ([2]; HER 8 g a.i./ha + isoxadifen-ethyl 50 g a.i./ha) was 25%. The “Reduction [%]” value [2, 13] was 73%, the “Reduction [Difference]” value [2, 13] was 69 and the HER effect ([2]; HER 8 g a.i./ha) was 94%. For the same compound, the “HER effect + SAF” value ([2]; HER 32 g a.i./ha + isoxadifen-ethyl 100 g a.i./ha) was 20%, the “Reduction [%]” value [2, 14] was 79% and the “Reduction [Difference]” value [2, 14] was 77. The HER effect ([2]; HER 32 g a.i./ha) was 97%, the “Reduction [%]” value [5, 10] was 63% and the “Reduction [Difference]” value [5, 10] was 25. The “HER effect + SAF” value [5, 10] was 15%, the HER effect [5, 10] was 40% and the “Reduction [%]” value [6, 15] was 67%. For the same compound, the “Reduction [Difference]” value [6, 15] was 30, the “HER effect + SAF” value [6, 15] was 15% and the HER effect [6, 15] was 45%.

`C=CC1(C(=O)NC2C=CC(C(=O)OC)C2)CC(c2cc(F)cc(F)c2)=NO1` (centres unmarked) [Example 1.26] was tested, and the “Reduction [%]” value ([1]; 21 DAT (Final)) was 90%, the “Reduction [Difference]” value ([1]; 21 DAT (Final)) was 45 and the “HER effect + SAF” value ([1]; 21 DAT (Final)) was 5%. The HER effect ([1]; 21 DAT (Final)) was 50%, the “HER effect + SAF” value [3, 16] was 10% and the “Reduction [%]” value ([3]; HER 0.5 g a.i./ha) was 75%. The “Reduction [Difference]” value ([3]; HER 0.5 g a.i./ha) was 30, the HER effect ([3]; HER 0.5 g a.i./ha) was 40% and the “HER effect + SAF” value [4, 16] was 10%. The “Reduction [%]” value ([4]; HER 0.5 g a.i./ha) was 75%, the “Reduction [Difference]” value ([4]; HER 0.5 g a.i./ha) was 30 and the HER effect ([4]; HER 0.5 g a.i./ha) was 40%. For the same compound, the “HER effect + SAF” value [4, 7] was 50%, the “Reduction [%]” value ([4]; HER 2 g a.i./ha) was 29% and the “Reduction [Difference]” value ([4]; HER 2 g a.i./ha) was 20. The HER effect ([4]; HER 2 g a.i./ha) was 70%, the “Reduction [%]” value [5, 17] was 90% and the “Reduction [Difference]” value [5, 17] was 45. The “HER effect + SAF” value [5, 17] was 5%, the HER effect [5, 17] was 50% and the “Reduction [%]” value [5, 18] was 36%. For the same compound, the “Reduction [Difference]” value [5, 18] was 25, the “Reduction [%]” value [5, 19] was 79% and the “Reduction [Difference]” value [5, 19] was 55. The “HER effect + SAF” value [5, 18] was 45%, the “HER effect + SAF” value [5, 19] was 15% and the HER effect [5, 18] was 70%. The HER effect [5, 19] was 70%, the “Reduction [%]” value [6, 15] was 31% and the “Reduction [Difference]” value [6, 15] was 20. The “Reduction [%]” value [6, 20] was 80%, the “Reduction [Difference]” value [6, 20] was 60 and the “HER effect + SAF” value [6, 15] was 45%. The “HER effect + SAF” value [6, 20] was 15%, the HER effect [6, 15] was 65% and the HER effect [6, 20] was 75%.

Source: patent publication US20230217926A1, “SELECTIVE HERBICIDES BASED ON SUBSTITUTED ISOXAZOLIN CARBOXAMIDES AND ISOXADIFEN-ETHYL” (BAYER AKTIENGESELLSCHAFT, priority 2020, published 2023)
